≈ marks a conversion by molar mass, not a printed value.

The results in this text go back to patent US20060166996A1, “Phthalazine derivatives as phosphodiesterase 4 inhibitors” (Zambon Group S.P.A., priority 2002, published 2006).

The target of one data set is T1, PDE 1 (Bos taurus, UniProt P14100).
T1 construct: partially purified from bovine heart; purchased Sigma P0520; host or cells: bovine heart
Put plainly: PDE 1 enzyme inhibition (SPA). Format: biochemical. To be noted: PDE 1 from bovine heart (Sigma P0520); read-out: PDE 1 IC 50. On the procedure:
Lyophilised PDE 1 enzyme, partially purified from bovine heart, was purchased from Sigma (P0520).
The enzyme consists of the PI fraction reported by Ho et al. (Biochim Biophys Acta, 1976, vol. 429(2), 461-473).
The lyophilised enzyme was reconstituted with 30% v/v ethylene glycol at a concentration of 500 µg/ml and stored at −20° C.
PDE 1 activity was determined using the Scintillation Proximity Assay (SPA) Amersham kit consisting of tracer ^3H-cAMP, PDE assay buffer (10×solution: 500 mM TRIS/HCl pH 7.5, 83 mM MgCl2 and 17 mM EGTA) and Yttrium SPA PDE beads (containing 18 mM zinc sulphate).
(§1) The radioactivity of the beads was measured using a scintillation counter (Packard model MINAXI β TRI-CARB 4000 SERIES).

The nature of data set [1]: Solubility test by HPLC in PBS pH 7.4. In kind it is physicochemical. The settings on record: PBS pH 7.4, HPLC against standard, compounds of formula I; for solubility kinetic: PBS (phosphate buffer saline), aqueous buffer, kinetic from dmso stock. On the procedure: HPLC method used to test the solubility.
Solubility test was performed by HPLC analysis (column 4.6×15 mm) water/0.1% TFA —CH3CN/0.06% TFA gradient) against standard.
A […] solution of the substance dissolved in DMSO was prepared.
In order to prepare the sample 190 μl of PBS (Phosphate Buffer Saline, pH 7.4) were added to 10 μl of the above solution; instead (while) in order to prepare the standard 190 μl of DMSO to other 10 μl of solution were added.

A further data set has as its target T2, PDE 2 (Rattus norvegicus, UniProt Q01062).
T2 construct: Fractions containing PDE 2 enzyme activity were pooled; endogenous in cells; host or cells: PC12 cells (Istituto Zooprofilattico Brescia)
T2 sequence (Q01062 1-928): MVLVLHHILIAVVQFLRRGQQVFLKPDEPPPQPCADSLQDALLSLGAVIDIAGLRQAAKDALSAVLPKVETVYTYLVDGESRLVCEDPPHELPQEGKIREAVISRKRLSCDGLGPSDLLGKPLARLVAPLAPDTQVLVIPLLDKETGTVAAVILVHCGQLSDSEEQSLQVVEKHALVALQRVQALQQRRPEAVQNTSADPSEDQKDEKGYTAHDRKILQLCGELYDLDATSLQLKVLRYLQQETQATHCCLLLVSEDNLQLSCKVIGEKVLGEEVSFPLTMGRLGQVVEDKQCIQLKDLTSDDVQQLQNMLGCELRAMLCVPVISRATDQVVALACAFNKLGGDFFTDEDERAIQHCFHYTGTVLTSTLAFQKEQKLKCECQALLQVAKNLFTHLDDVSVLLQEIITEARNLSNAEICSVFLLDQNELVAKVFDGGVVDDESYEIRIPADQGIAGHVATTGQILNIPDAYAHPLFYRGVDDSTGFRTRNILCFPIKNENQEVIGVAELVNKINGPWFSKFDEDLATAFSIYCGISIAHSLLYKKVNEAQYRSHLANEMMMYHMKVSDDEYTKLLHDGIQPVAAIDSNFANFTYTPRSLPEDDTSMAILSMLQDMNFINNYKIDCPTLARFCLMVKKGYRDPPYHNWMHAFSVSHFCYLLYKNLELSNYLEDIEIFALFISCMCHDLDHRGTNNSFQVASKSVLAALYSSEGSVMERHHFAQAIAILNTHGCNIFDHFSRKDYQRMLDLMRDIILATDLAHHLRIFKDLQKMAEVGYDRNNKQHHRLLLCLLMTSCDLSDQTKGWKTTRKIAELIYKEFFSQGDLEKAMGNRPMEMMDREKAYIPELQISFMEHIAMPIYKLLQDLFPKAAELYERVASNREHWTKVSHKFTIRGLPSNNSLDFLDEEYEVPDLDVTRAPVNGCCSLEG
Put plainly: PDE 2 enzyme inhibition (SPA). In kind it is biochemical. The settings on record: PDE 2 from murine PC12 cells; read-out: PDE 2 IC 50. On the procedure: PDE 2 was purified from murine PC12 cells according to Whalin et al. (Molecular Pharmacol. 1991, 39, 711-717).
PC12 cells from Istituto Zooprofilattico Brescia (Italy) were maintained in […] flasks at 37° C. and 5% CO2 in DMEM containing 5% FCS, 15% horse serum, 1% penicillin, 1% streptomycin and 1% glutamine.
The cells were expanded paying attention to split them only at reached confluency.
After washing the cells were detached with 0.05% trypsin/0.02%EDTA and collected in a clean test tube.
After centrifugation, the cells were suspended in buffer containing Bis-Tris 20 mM, EDTA 2 mM, 2-mercaptoethanol 5 mM, leupeptin 1 μM, pepstatin A 1 μM, PMSF 100 μM, pH 6.5, and homogenised using a Polytron homogeniser.
After centrifugation, the supernatant fraction was applied to a UNO Q-12 column connected to a Biologic Chromatography system (FPLC, BIO RAD).
PDE 2 enzyme was eluted with a linear 0.05-1M sodium acetate gradient and elution fractions were collected for PDE 2 enzyme activity assay.
Fractions containing PDE 2 enzyme activity were pooled, dialysed overnight against distilled water and concentrated 10 times by an Amicon filtration system (using YM10 membrane filter).
Ethylene glycol was added to a final concentration of 30% v/v and the solution stored at −20° C.
Enzymatic activity was stable for several weeks under these conditions.
PDE 2 activity assay was performed using Scintillation Proximity Assay (SPA) Amersham kit consisting of tracer ^3H-cAMP, PDE assay buffer (10×solution: 500 mM TRIS/HCl pH 7.5, 83 mM MgCl2 and 17 mM EGTA) and Yttrium SPA PDE beads (containing 18 mM zinc sulphate).
as §1

T1 sequence (P14100 1-514 isoform P14100-2): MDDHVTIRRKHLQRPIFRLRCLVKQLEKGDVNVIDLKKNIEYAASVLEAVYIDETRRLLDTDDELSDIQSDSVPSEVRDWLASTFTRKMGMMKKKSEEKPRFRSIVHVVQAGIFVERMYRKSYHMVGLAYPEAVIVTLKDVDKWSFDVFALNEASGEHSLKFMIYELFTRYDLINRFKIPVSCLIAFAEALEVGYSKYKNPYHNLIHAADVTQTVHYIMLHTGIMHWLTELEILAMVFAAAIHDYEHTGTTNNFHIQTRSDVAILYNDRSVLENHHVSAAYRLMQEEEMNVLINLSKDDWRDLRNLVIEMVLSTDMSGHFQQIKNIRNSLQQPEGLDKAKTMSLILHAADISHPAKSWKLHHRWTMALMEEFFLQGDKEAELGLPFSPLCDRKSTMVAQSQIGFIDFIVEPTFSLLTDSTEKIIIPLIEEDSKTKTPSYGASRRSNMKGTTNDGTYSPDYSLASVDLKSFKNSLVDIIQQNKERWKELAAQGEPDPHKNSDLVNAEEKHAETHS

Turning to `COc1ccc2c(Cc3c(Cl)cncc3Cl)nnc(-c3sccc3C(=O)O)c2c1` [Compound 10, 2-[4-(3,5-dichloro-pyridin-4-ylmethyl)-7-methoxy-phthalazin-1-yl]-thiophene-3-carboxylic Acid], at PDE 1, the IC50 is > 10 µM. Also, in data set [1], the kinetic solubility was 253 µg/mL (≈ 567 µM) and the “Sol.” value is 567.26 µM. Moreover, the IC50 at PDE 2 is > 10 µM.

Regarding `COc1ccc2c(Cc3c(Cl)cncc3Cl)nnc(-c3cccc(C(=O)O)c3)c2c1` [Compound 2, 3-[4-(3,5-dichloro-pyridin-4-ylmethyl)-7-methoxy-phthalazin-1-yl]-benzoic Acid], the IC50 at PDE 1 is > 10 µM. Also, in data set [1], the kinetic solubility came to 216 µg/mL (≈ 491 µM) and the “Sol.” value turned out to be 482.14 µM. Further, the IC50 at PDE 2 was > 10 µM.

As to `O=C(O)c1cccc(-c2nnc(Cc3c(Cl)cncc3Cl)c3ccc(OC(F)F)cc23)c1` [Compound 8, 3-[4-(3,5-dichloro-pyridin-4-ylmethyl)-7-difluoromethoxy-phthalazin-1-yl]-benzoic Acid], on PDE 1, the IC50 is > 10 µM. Further, in data set [1], the kinetic solubility turned out to be 470 µg/mL (≈ 987 µM) and the “Sol.” value turned out to be 987.39 µM. In addition, the IC50 on PDE 2 was > 10 µM.
